Reference: patent US7214395B2, “Pharmaceutical and cosmetic composition against skin aging” (Indena S.p.A., priority 2001, dated 2007)

System: fibroblasts
Assay: collagen metabolism / amino acid up-take by fibroblasts
Format: cell-based
Excerpt: […]. An improved synthesis of collagen means a faster substitution of the degraded old fibers of collagen with the new ones.

Row | SMILES | activity on collagen metabolism | capability of the fibroblasts to up-take amino acids such as L-Proline and L-Hydroxyproline
1 | C[C@H]1[C@H](C)CC[C@]2(C(=O)O)CC[C@]3(C)C(=CC[C@@H]4[C@@]5(C)C[C@@H](O)[C@H](O)[C@@](C)(CO)[C@@H]5CC[C@]43C)[C@H]12 [asiatic acid] | strong activity | improve
2 | C[C@H]1[C@H](C)CC[C@]2(C(=O)O)CC[C@]3(C)C(=CC[C@@H]4[C@@]5(C)C[C@@H](O)[C@H](O)[C@@](C)(CO)[C@@H]5[C@H](O)C[C@]43C)[C@H]12 [madecassic acid] | strong activity | improve
